In patent publication US10544113B2 (priority 2016, dated 2020):
Like-named read-outs stand apart in the source and are kept apart here.

Biological target: mu-opioid receptor (MOR) (Homo sapiens (Human), UniProt P35372)
Experiment: cell-based
Details: combined with a MOR antagonist; for AUC: AUC of [Ca2+]i fluorescence, CHO-K1/MOR/Gα15 cells
Experimental: In an exemplary in vitro screening method for identifying antagonist-to-agonist allosteric modifiers of a MOR, cells that express a MOR are treated with a test compound and a MOR antagonist in a cellular calcium fluorescent assay and fluorescence intensity is then measured to determine whether the MOR is activated. A test compound is identified as an antagonist-to-agonist allosteric modifier of the MOR if the MOR is activated.
EC50 herein refers to the concentration of a compound that induces a response halfway between the baseline and the maximum after a specified exposure time. AUC refers to the area under the response curve, an indication of the compound's capability of activating a MOR when combined with a MOR antagonist.
Human embryonic kidney 293 (HEK-293) cells constitutively expressing MOR (HEK-MOR) and DOR (HEK-DOR) (kindly provided by Dr. Ping-Yee Law, University of Minnesota, USA) were cultured in high-glucose Dulbecco's modified Eagle's medium (DMEM, GIBCO) supplemented with 400 μg/mL G418 (Sigma), 2 mM L-glutamine and P/S/F (100 units/mL penicillin, 100 μg/mL streptomycin, 10% fetal bovine serum). Chinese hamster ovary (CHO)-K1 cells, stably expressing hMOR and Gα15 (CHO-K1/MOR/Gα15), were cultured in F12 medium (GIBCO) supplemented with 10 μg/mL Hygromycin B (Invivogen), 20 μg/mL Zeocin (Invivogen) P/S/F (100 units/mL penicillin, 100 μg/mL streptomycin, 10% fetal bovine serum). The cultures were incubated at 37° C. in a humidified 5% CO2 incubator.
One day before the assay, CORNING® black with clear flat bottom 96-well assay plates were coated with a 0.1 mg/mL Poly-L-Lysine solution. CHO-K1/MOR/Gα15 cells were suspended in the F12 medium and plated at a density of ˜8×10^4 cells/well in 200 μL medium. Cells were incubated in a humidified atmosphere of 10% CO2 at 37° C. overnight so as to reach an 80-90% confluent cell monolayer before assay. At the day of assay, 150 μL medium/well was removed from plate. To each well, 50 μL FLIPR® calcium assay reagent dissolved in 1× assay buffer (HBSS: KCl 5 mM, KH2PO4 0.3 mM, NaCl 138 mM, NaHCO3 4 mM, Na2HPO4 0.3 mM, d-glucose 5.6 mM, with additional 20 mM HEPES and 13 mM CaCl2, pH 7.4), with 2.5 mM probenecid was added and the plate was incubated at 37° C. for 1 h. Compounds and other reagents were dissolved in the assay buffer. Using a FlexStationIII (Molecular Devices Corp.), the [Ca^2+]i fluorescence increases after robotic injections of compounds or other reagents were monitored every 1.52 s interval with excitation wavelength at 485 nm and with emission wavelength at 525 nm. The [Ca^2+]i fluorescence was measured up to 90 s after agonist injection.
A CHO-K1 cell line, expressing a MOR and Gα15 (GenScript), was used to set up a sensitive high-throughput screen (HTS) system. In a FLIPR® calcium assay using CHO-K1/MOR/Gα15 cells, activation of MOR elicits an intracellular calcium release leading to an increase in the relative fluorescence units (FRU). […] The HTS was performed in the absence or presence of an opioid antagonist, naloxone (25 nM), to identify antagonist to agonist allosteric modifiers (AAM).
A CHO-K1 cell line, expressing a MOR and Gα15 (GenScript), was used to set up a sensitive assay system for detecting μ-opioid receptor activation. […] The assay was performed in the presence of an opioid antagonist, i.e., naloxone (25 nM), naltrexone (20 nM), samidorphan (10 nM), naloxonazine dihydrochloride (20 nM), β-funaltrexamine hydrochloride (20 nM), cyprodime hydrochloride (500 nM), or nalmefene (20 nM), in combination with compound 58, an antagonist to agonist allosteric modifier (AAM), to identify activation of the μ-opioid receptor.

Chain of mu-opioid receptor (MOR) (P35372 whole entry): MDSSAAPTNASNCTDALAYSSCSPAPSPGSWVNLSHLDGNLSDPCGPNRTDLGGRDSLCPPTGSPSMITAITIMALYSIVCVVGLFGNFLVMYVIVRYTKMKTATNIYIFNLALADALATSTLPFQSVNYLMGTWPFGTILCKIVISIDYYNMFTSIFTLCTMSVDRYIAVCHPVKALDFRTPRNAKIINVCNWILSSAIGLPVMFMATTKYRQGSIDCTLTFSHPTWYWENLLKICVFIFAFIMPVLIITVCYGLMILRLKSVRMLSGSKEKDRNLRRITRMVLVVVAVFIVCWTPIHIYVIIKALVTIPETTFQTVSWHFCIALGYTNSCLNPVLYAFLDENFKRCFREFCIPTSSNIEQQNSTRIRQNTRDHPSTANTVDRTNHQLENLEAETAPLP

Row | SMILES | FLIPR Ca^2+ AUC | EC50 (read-out: FLIPR Ca^2+ EC50) [µM] | AUC | EC50 (EC50, CHO-K1/MOR/Gα15 cells) [µM]
1 | Cc1cc(C(=O)OC(C)(C)C)ccc1N1C(=O)CSC1c1ccc(F)cc1 (centres unmarked) [Example 235] | 15203 | 6.8 | – | –
2 | Cc1cc(C(=O)OC2(C)CC2)ccc1N1C(=O)CSC1c1ccc(F)cc1 (centres unmarked) [Example 236] | 13348 | 4.7 | – | –
3 | Cc1cc(C(=O)OCCC2CC2)ccc1N1C(=O)CSC1c1ccc(F)cc1 (centres unmarked) [Example 238] | 15409 | 12.3 | more than 5000 | –
4 | Cc1cc(C(=O)OCC2CCCC2)ccc1N1C(=O)CSC1c1ccc(F)cc1 (centres unmarked) [Example 239] | 4342 | 9.4 | – | < 10
5 | Cc1cc(C(=O)OCCOCc2ccccc2)ccc1N1C(=O)CSC1c1ccc(F)cc1 (centres unmarked) [Example 258] | 6353 | 3.3 | more than 5000 | < 10
6 | Cc1cc(C(=O)OCc2cccnc2)ccc1N1C(=O)CSC1c1ccc(F)cc1 (centres unmarked) [Example 261] | 11434 | 2.9 | more than 5000 | < 10
7 | Cc1cc(C(=O)OCCCc2ccccn2)ccc1N1C(=O)CSC1c1ccc(F)cc1 (centres unmarked) [Example 263] | 14918 | 9.2 | more than 5000 | < 10
8 | Cc1cc(C(=O)OCCc2scnc2C)ccc1N1C(=O)CSC1c1ccc(F)cc1 (centres unmarked) [Example 266] | 12653 | 4.6 | – | –
9 | COCCCOC(=O)c1ccc(N2C(=O)CSC2c2ccc(F)cc2)c(C)c1 (centres unmarked) [Example 267] | 15960 | 6.4 | – | –
10 | CC(=O)COC(=O)c1ccc(N2C(=O)CSC2c2ccc(F)cc2)c(C)c1 (centres unmarked) [Example 268] | 12787 | 3.8 | – | –
11 | Cc1cc(C(=O)OCCC#N)ccc1N1C(=O)CSC1c1ccc(F)cc1 (centres unmarked) [Example 269] | 14183 | 12.3 | – | –
12 | CSCCOC(=O)c1ccc(N2C(=O)CSC2c2ccc(F)cc2)c(C)c1 (centres unmarked) [Example 270] | – | – | – | < 10
13 | CCSCCOC(=O)c1ccc(N2C(=O)CSC2c2ccc(F)cc2)c(C)c1 (centres unmarked) [Example 271] | 11997 | 14 | – | –
14 | CC(=O)OCCOC(=O)c1ccc(N2C(=O)CSC2c2ccc(F)cc2)c(C)c1 (centres unmarked) [Example 272] | – | – | – | < 10
15 | Cc1cc(C(=O)OCOC(=O)C(C)(C)C)ccc1N1C(=O)CSC1c1ccc(F)cc1 (centres unmarked) [Example 273] | 12265 | 5.7 | – | < 10
16 | Cc1cc(C(=O)OCC2CCCO2)ccc1N1C(=O)CSC1c1ccc(F)cc1 (centres unmarked) [Example 275] | 11236 | 26.9 | – | –
17 | Cc1cc(C(=O)OCC2COC(C)(C)O2)ccc1N1C(=O)CSC1c1ccc(F)cc1 (centres unmarked) [Example 276] | 15090 | 6.3 | – | < 10
18 | Cc1cc(C(=O)OC2COC(C)(C)OC2)ccc1N1C(=O)CSC1c1ccc(F)cc1 (centres unmarked) [Example 277] | 14634 | 6.1 | – | < 10
19 | COCC(C)OC(=O)c1ccc(N2C(=O)CSC2c2ccc(F)cc2)c(C)c1 (centres unmarked) [Example 279] | 10883 | 4.1 | – | –
20 | CCOCCOC(=O)c1ccc(N2C(=O)CSC2c2ccc(F)cc2)c(C)c1 (centres unmarked) [Example 281] | 9792 | 4.5 | – | –
21 | Cc1cc(C(=O)OCC(F)(F)F)ccc1N1C(=O)CSC1c1ccc(F)cc1 (centres unmarked) [Example 286] | 13001 | 9.2 | more than 5000 | < 10
22 | Cc1cc(C(=O)OCCN(C)C)ccc1N1C(=O)CSC1c1ccc(F)cc1 (centres unmarked) [Example 290] | 14778 | 10 | – | –
23 | Cc1cc(C(=O)OCCCN(C)C)ccc1N1C(=O)CSC1c1ccc(F)cc1 (centres unmarked) [Example 291] | 8913 | 1.9 | – | –

Row | SMILES | FLIPR Ca^2+ AUC | EC50 (read-out: FLIPR Ca^2+ EC50) [µM] | AUC | EC50 (EC50, CHO-K1/MOR/Gα15 cells) [µM]
24 | CCN(CC)CCOC(=O)c1ccc(N2C(=O)CSC2c2ccc(F)cc2)c(C)c1 (centres unmarked) [Example 292] | 10056 | 3.1 | – | –
25 | Cc1cc(C(=O)OCCN2CCCCC2)ccc1N1C(=O)CSC1c1ccc(F)cc1 (centres unmarked) [Example 295] | 10426 | 2.8 | – | –
26 | Cc1cc(C(=O)OCCN2CCOCC2)ccc1N1C(=O)CSC1c1ccc(F)cc1 (centres unmarked) [Example 296] | 14052 | 2.3 | – | –
27 | Cc1cc(C(=O)OCCCN2CCOCC2)ccc1N1C(=O)CSC1c1ccc(F)cc1 (centres unmarked) [Example 297] | 13753 | 8.1 | – | –
28 | Cc1cc(C(=O)OCCCN2CCCCC2)ccc1N1C(=O)CSC1c1ccc(F)cc1 (centres unmarked) [Example 298] | 9283 | 1.7 | – | –
29 | CC(=O)N1CCC(CCOC(=O)c2ccc(N3C(=O)CSC3c3ccc(F)cc3)c(C)c2)CC1 (centres unmarked) [Example 299] | 10053 | 5 | – | –
30 | Cc1cc(C(=O)OC2CCN(C)C2)ccc1N1C(=O)CSC1c1ccc(F)cc1 (centres unmarked) [Example 300] | 12918 | 1.6 | – | –
31 | Cc1cc(C(=O)OC2CCN(C)CC2)ccc1N1C(=O)CSC1c1ccc(F)cc1 (centres unmarked) [Example 301] | 9593 | 0.9 | – | –
32 | Cc1cc(C(=O)OCCOCCN)ccc1N1C(=O)CSC1c1ccc(F)cc1 (centres unmarked) [Example 303] | 9530 | 7 | more than 5000 | < 10
33 | Cc1cc(C(=O)OCCOCCN(C)C)ccc1N1C(=O)CSC1c1ccc(F)cc1 (centres unmarked) [Example 306] | 7531 | 6.2 | more than 5000 | < 10
34 | Cc1cc(C(=O)OCCOCCN2CCCC2)ccc1N1C(=O)CSC1c1ccc(F)cc1 (centres unmarked) [Example 307] | 14731 | 8.7 | more than 5000 | < 10
35 | Cc1cc(C(=O)OCc2oc(=O)oc2C)ccc1N1C(=O)CSC1c1ccc(F)cc1 (centres unmarked) [Example 311] | – | – | – | < 10
36 | CCOC(=O)OC(C)OC(=O)c1ccc(N2C(=O)CSC2c2ccc(F)cc2)c(C)c1 (centres unmarked) [Example 313, 3-(1,5-Dimethyl-3-oxo-2-phenyl-2,3-dihydro-1H-pyrazol-4-yl)-2-(4-(methylthi)phenyl)thiazolidin-4-one] | – | – | – | < 10
37 | Cc1cc(C(=O)OCOC(=O)OC(C)C)ccc1N1C(=O)CSC1c1ccc(F)cc1 (centres unmarked) [Example 314] | – | – | – | < 10
38 | Cc1cc(C(=O)OC(C)CNC(=O)c2cccnc2)ccc1N1C(=O)CSC1c1ccc(F)cc1 (centres unmarked) [Example 326] | – | – | – | < 10
39 | Cc1cc(C(=O)OC(C)CNC(=O)c2ccc[n+](C)c2)ccc1N1C(=O)CSC1c1ccc(F)cc1 (centres unmarked) [Example 328] | – | 11.8 | – | –
40 | Cc1cc(C(N)=O)ccc1N1C(=O)CSC1c1ccc(F)cc1 (centres unmarked) [Example 329] | 13749 | 1.7 | more than 5000 | < 10
41 | CNC(=O)c1ccc(N2C(=O)CSC2c2ccc(F)cc2)c(C)c1 (centres unmarked) [Example 331] | – | – | – | < 10
42 | Cc1cc(C(=O)N(C)C)ccc1N1C(=O)CSC1c1ccc(F)cc1 (centres unmarked) [Example 332] | – | – | – | < 10
43 | CCCNC(=O)c1ccc(N2C(=O)CSC2c2ccc(F)cc2)c(C)c1 (centres unmarked) [Example 334] | 9672 | 5.7 | – | < 10
44 | CCNC(=O)c1ccc(N2C(=O)CSC2c2ccc(F)cc2)c(C)c1 (centres unmarked) [Example 335] | 11180 | 4.2 | – | < 10
45 | Cc1cc(C(=O)NC2CC2)ccc1N1C(=O)CSC1c1ccc(F)cc1 (centres unmarked) [Example 336] | 11347 | 11 | – | –
